Results published in patent publication US20250340590A1, “PEPTIDE HAVING ANTI-INFLAMMATORY ACTIVITY AND USE THEREOF” (CAREGEN CO., LTD., priority 2021, published 2025).

How the values were obtained:
Assay type in all cases: cell-based
IL-17 [1] = assay: IL-17 secretion by ELISA in TNFα-induced mouse splenocytes; conditions: TNFα 20 nM, 24 hours
Experimental: (§1) Inflammation was induced by treating mouse splenocytes with the inflammatory cytokine TNFα, and the secretion amounts of the inflammatory cytokines IL-17, IL-1B, and IFNγ were confirmed. IL-17 corresponds to a pro-inflammatory cytokine, and the descriptions of IL-1β and IFNγ are the same as above.
(§2) Mouse splenocytes were dispensed into a 24-well plate at a concentration of 1×10^7 cells/well and cultured until the next day. The medium was replaced with serum-free medium, and after 4 hours, the cells were treated with TNFα and the peptide of the present invention and then cultured again for another 24 hours. In order to induce inflammation, the cells were treated with TNFα at 20 nM, and the peptide at 5 μM and 50 μM, respectively. The mouse splenocytes in the group in which inflammation was not induced due to untreatment with TNFα (NON); the negative control group in which the cells were treated with TNFα but not treated with the peptide (NC); and the group in which the cells were treated with TNFα along with the peptide of the present invention at the same concentration as above, respectively, were reacted as described above and the cell cultures were recovered. […]

IL-17 [2] = assay: IL-17 secretion by ELISA in mouse splenocytes induced with LPS, TGFβ and IL-23; conditions: LPS 2 μg/mL, TGFβ 20 ng/ml, IL-23 20 ng/mL, 24 hours
Source text: (§3) Inflammation was induced by treating mouse splenocytes with LPS, which is an inflammation-inducing antigen, and TGFβ and IL-23, which are inflammatory cytokines, and the secretion amounts of the inflammatory cytokines IL-17, IL-1β, and IFNγ were confirmed. The descriptions of IL-17, IL-1B, and IFNγ are the same as above.
(§4) Mouse splenocytes were dispensed into a 24-well plate at a concentration of 1×10^7 cells/well and cultured until the next day. The medium was replaced with serum-free medium, and after 4 hours, the cells were treated with LPS, TGFβ, and IL-23 and the peptide of the present invention and then cultured again for another 24 hours. In order to induce inflammation, the cells were treated with LPS at 2 μg/mL, TGFβ at 20 ng/ml, IL-23 at 20 ng/mL, and the peptide at 5 μM and 50 μM, respectively. The mouse splenocytes in the group in which inflammation was not induced due to untreatment with LPS, TGFβ, and IL-23 (NON); the negative control group in which the cells were treated with LPS, TGFβ, and IL-23 but not treated with the peptide (NC); and the group in which the cells were treated with LPS, TGFβ, and IL-23 along with the peptide of the present invention at the same concentration as above, respectively, were reacted as described above and the cell cultures were recovered. […]

IL-1β [3] = assay: IL-1β mRNA level by RT-PCR in TNFα-induced mouse splenocytes; conditions: TNFα 20 nM, peptide at 5 μM and 50 μM, 3 hours, compared to group not treated with the peptide
Experimental: In order to further confirm the anti-inflammatory effect of the peptide treatment of the present invention in addition to the results of Experimental Example <3-1>, inflammation was induced by treating mouse splenocytes with TNFα, and the expression levels of inflammatory cytokines TNFα and IL-1β, and Cox2, which is an inflammation-inducing marker, genes were confirmed. In order to induce inflammation, the cells were treated with cytokine TNFα, and since TNFα corresponds to a signaling protein associated with inflammation, IL-1β corresponds to a cytokine that promotes inflammation, and Cox2 is a protein associated with inflammation, the degree of inflammation can be confirmed by measuring the expression levels of TNFα, Cox2, and IL-1β genes.
Mouse splenocytes were dispensed into a 24-well plate at a concentration of 1× 10^7 cells/well and cultured until the next day. The medium was replaced with serum-free medium, and after 3 hours, the cells were treated with TNFα and the peptide of the present invention and then cultured for another 3 hours. In order to induce inflammation, the cells were treated with TNFα at 20 nM, and the peptide at 5 μM and 50 μM, respectively. […] After quantifying the amount of isolated RNA, cDNA was synthesized using a cDNA synthesis kit (Intron, Korea), PCR was performed using a PCR premix (Intron, Korea) and primers for TNFα, Cox2, and IL-1B. […]

IL-1β [4] = assay: IL-1β secretion by ELISA in mouse splenocytes induced with LPS, TGFβ and IL-23; conditions: LPS 2 μg/mL, TGFβ 20 ng/ml, IL-23 20 ng/mL, 24 hours
Source text: as §3, §4

IFNγ = IFNγ secretion by ELISA in TNFα-induced mouse splenocytes; conditions: TNFα 20 nM, 24 hours
Experimental: as §1, §2

TWNS [peptide of the present invention]
decreased: secretion amount of IL-17 (IL-17 [1]; peptide at 50 μM) | secretion amount of IL-17 (IL-17 [2]; peptide at 50 μM) | mRNA expression level of IL-1β (IL-1β [3]) | secretion amount of IL-1β (IL-1β [4]; peptide at 5 μM) | secretion amount of IL-1β (IL-1β [4]; peptide at 50 μM) | secretion amount of IFNγ (IFNγ; peptide at 5 μM) | secretion amount of IFNγ (IFNγ; peptide at 50 μM)
slightly increased: secretion amount of IL-17 (IL-17 [1]; peptide at 5 μM) | secretion amount of IL-17 (IL-17 [2]; peptide at 5 μM)
